# Source: patent US8153784B2, “Imaging of enzyme activity” (The General Hospital Corporation, priority 2004, dated 2012)
# Values joined by “and” are separate entries in the source; they are usually repeats but may differ in a detail not shown here. Equal entries are not always repeated. “Also recorded” adds a separate entry of the source.
# What was measured:
# [1] = Relaxivity of monomeric Gd complexes without enzyme; format: physicochemical; conditions: for r1p (0.47T, 40°) / r1p (1.5T, 25°): no HRP
# Procedure: Stock solutions of compounds 1Gd and 2Gd were prepared by dissolving the corresponding complexes in DPBS buffer solution (pH 7.4) and were kept at −4° in the dark. Every stock solution was titrated by means of ICP-MS (Elemental Research Inc.).
# Relaxation times at 0.47 T was obtained on a Bruker NMS-120 Minispec spectrometer using an inversion recovery sequence, with a TR=5T1, and 15 TI points evenly spaced up to 5T1.
# Relaxation times at 1.5 T was measured on a 1.5 T GE Excite MR scanner utilizing an inversion recovery sequences with TR=2000 ms, TI=50, 75, 100, 150, 200, 250, 300, 350, 400, 500, 625, 750, 1000 ms. A fixed-size region of interest was drawn to obtain the signal intensity of the samples.
# The data at 0.47 T and 1.5 T were fitted to the equation Ix=I0*(1−2e^[…]) to obtain T1, where I is the signal obtained at a certain time point TI, with I0 (total signal or magnetization) and T1 being fitted values.
# The relaxivities of various polymerized products were measured using a minimum of four different gadolinium complex concentrations ranging from 2.5 mM to 0.01 mM. Horseradish peroxidase (HRP) was used in the proof-of-the-principle experiments. As used herein, the descriptors 1Gd^3+ and 2Gd^3+ refer to Gd^3+-chelated compounds 1 and 2, respectively. The synthesis of 1Gd^3+ and 2Gd^3+ are described in the Examples.
# [2] = biological target: T1, human MPO embedded in Matrigel (Homo sapiens, UniProt P05164); assay: MPO/Matrigel implant mouse model, T1-weighted MR imaging; format: in vivo; conditions: for enhancement of MPO implant compared with control implant: right MPO/Matrigel vs left control; for enhancement of MPO implant compared with control implant / relative CNR before wash-out/decrease of the control side: 1.5 T; for maximum relative CNR ratio (CNR(right)/CNR(left)): MPO/Matrigel right vs control left
# T1 construct: purchased BioDesign, Inc
# T1 sequence (P05164 49-745): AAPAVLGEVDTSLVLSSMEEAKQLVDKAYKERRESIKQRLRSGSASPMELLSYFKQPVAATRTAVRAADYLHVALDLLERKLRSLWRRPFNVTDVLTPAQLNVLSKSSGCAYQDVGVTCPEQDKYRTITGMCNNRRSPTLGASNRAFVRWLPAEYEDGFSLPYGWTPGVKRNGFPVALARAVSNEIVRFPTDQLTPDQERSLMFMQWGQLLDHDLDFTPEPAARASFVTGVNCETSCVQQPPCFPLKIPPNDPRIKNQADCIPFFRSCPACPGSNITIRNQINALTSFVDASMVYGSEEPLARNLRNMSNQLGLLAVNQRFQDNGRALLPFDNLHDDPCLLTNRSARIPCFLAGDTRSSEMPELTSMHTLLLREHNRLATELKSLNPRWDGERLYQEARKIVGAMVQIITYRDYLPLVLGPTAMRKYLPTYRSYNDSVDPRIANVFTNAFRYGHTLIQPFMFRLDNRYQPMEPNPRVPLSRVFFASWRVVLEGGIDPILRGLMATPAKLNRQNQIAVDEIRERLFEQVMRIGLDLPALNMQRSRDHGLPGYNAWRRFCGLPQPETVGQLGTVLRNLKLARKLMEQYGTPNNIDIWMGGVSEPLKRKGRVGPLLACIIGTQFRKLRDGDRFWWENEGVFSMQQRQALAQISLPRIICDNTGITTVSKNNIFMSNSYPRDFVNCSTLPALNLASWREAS
# Procedure: To evaluate the monomeric substrates in vivo, we devised a mouse model that harbored 400 μL of Matrigel basement membrane matrix gel mixed 1:1 by volume with a solution containing 15 U of human MPO and glucose oxidase (as a source of hydrogen peroxide) that was injected into the right flank of the mouse. The left flank was injected with the enzyme-free Matrigel mixture. We subsequently performed T1-weighted MR imaging after the intravenous injection of Gd-DTPA-diSer substrate at the dose of […].
# The MR imaging experiments were performed on a 1.5 T GE Excite scanner and a 4.7 T Bruker Pharmascan scanner. For all MR imaging experiments, precontrast T2-(TR=2000, TE=100, ETL=8, NEX=4, fast spin echo sequence) and T1-weighted images (TR=500, TE=11, NEX=4, spin echo sequence) with fat saturation were initially performed to locate the gels or area of inflammation. The substrates (0.3 mmol/kg) were subsequently injected via the tail vein of the mouse. The mouse was immediately imaged after the injection of the contrast agent using multiple T1-weighted sequences with fat saturation for at least 3 hours.
# Ten-week old C57BL6 male mice were obtained from Jackson Laboratories. A total of 22 mice were used for the study. • 1. MPO/Matrigel imaging experiments: Matrigel™ (Beckton-Dickinson), a […] basement membrane matrix gel was used to immobilize human MPO and glucose oxidase (to supply H2O2 required for detecting MPO oxidative activity, Calbiochem). This was chosen to reflect deposits of human MPO in inflamed tissue in a mouse model. 400 μL of a mixture of Matrigel™ and MEM (Cambrex) was injected slowly into the thighs of each mouse one hour prior to imaging. The right thigh mixture also contained 15 U of MPO and 4 U of glucose oxidase (Calbiochem), while the left thigh mixture contained no enzyme and thus serves as an internal control. A total of 15 mice were used (3 mice each for 5-HT-DOTA(Gd), bis-5-HT-DTPA(Gd), bis-5-HT-DTPA-^111In, bis-tyramide-DTPA(Gd), and DTPA(Gd)). • 2. LPS/Matrigel experiments (n=3): This model was developed to induce endogeneous mouse MPO secretion and activation. 200 μL total volume Matrigel containing 10% heparin was injected slowly into the thighs of the mice 4 days prior to imaging. The right-sided mixture also contained E. coli lipopolysaccharide (LPS) at 10 μg/mL. One mouse was sacrificed for immunohistochemistry. • 3. Myositis experiments (n=4): LPS at 100 μg/mL in PBS was injected into each mouse intramuscularly in the right flank to produce myositis. The mice are imaged 24 hours after injection.
# For normalized signal intensity measured on T1-weighted images, mean±standard deviation (SD) values were calculated in regions of interest (ROI). Contrast-to-noise (CNR) ratios were computed for each ROI according to the formula
# [3] = biological target: T2, human myeloperoxidase (MPO) (Homo sapiens, UniProt P05164); conditions: in vitro settings; reference (9); cited from earlier work
# T2 construct: purchased BioDesign Inc
"maximum relative CNR ratio (CNR(right)/CNR(left)) ([2]; mouse, listed as serotonin-DOTA-Gd^3+ complex)",Compound,"r1p (0.47T, 40°) ([1]; H2O pH = 4.8) [mM⁻¹ s⁻¹]","r1p (0.47T, 40°) ([1]; PBS pH = 7.4) [mM⁻¹ s⁻¹]","r1p (1.5T, 25°) ([1]; PBS pH = 7.4) [mM⁻¹ s⁻¹]","enhancement of MPO implant compared with control implant ([2]; mice, listed as bis-tyramide-DTPA(Gd))",enhancement of MPO implant compared with control implant ([2]; mice),maximum relative CNR ratio (CNR(right)/CNR(left)) ([2]; mouse),time of MPO activation and oligomerization to reach 90% completion [3],"r1 ([1]; well plate at 1.5T, pH 7.2, no enzyme (row 1)) [mM⁻¹ s⁻¹]","relative CNR increase before significant wash-out of the control side ([2]; mice, 4.7 T) [fold]","maximum relative CNR increase ([2]; mice, at 240 minutes (washout from control implant)) [times]","maximum relative CNR increase ([2]; mice, in the first 143 minutes) [times]",relative CNR before wash-out/decrease of the control side ([2]; mouse),"relative CNR before wash-out/decrease of the control side ([2]; mouse, listed as bis-5-HT-DTPA(Gd))","relative CNR ratio ([2]; mouse, at 185 minutes)","increase in the contrast-to-noise ratio, right (MPO-containing) vs left (control) flank ([2]; mouse, i.v. 0.3 mM/Kg, over 3 hours post injection)"
–,O=C([O-])CN(CCN(CC(=O)[O-])CC(=O)NCCc1ccc(O)cc1)CCN(CC(=O)[O-])CC(=O)NCCc1ccc(O)cc1.[Gd+3] [1Gd^3+],4.6,~4.3,5.3,did not result in significantly increased enhancement; also recorded: did not demonstrate significantly increased enhancement,–,–,–,–,–,–,–,–,–,–,–
1.72,"CC(C(=O)NCC(=O)NCCc1c[nH]c2ccc(O)cc12)N1CCN(CC(=O)[O-])CCN(CC(=O)[O-])CCN(CC(=O)[O-])CC1.[Gd+3] (stereo not shown) [5-HT-DOTA(Gd), Glycylmethyl DOTA(Gd) 5-Hydroxytryptamide]",–,–,–,–,significantly increased enhancement,1.7,about 15 minutes,–,–,–,–,–,–,–,–
–,O=C([O-])CN(CCN(CC(=O)[O-])CC(=O)NCCc1c[nH]c2ccc(O)cc12)CCN(CC(=O)[O-])CC(=O)NCCc1c[nH]c2ccc(O)cc12.[Gd+3] [2Gd^3+],4.5,~4.3,5.1,–,significantly increased enhancement,1.72 and 2.5,about 15 minutes,4.7,1.8,2.5,1.9,1.7-1.8,1.9,2.0,1.7-2.0 fold
